Values of other authors as cited in PMC5238771 (OncoTargets and therapy, 2017).

Columns and labels:
[1] = system: HepG2 human hepatocellular carcinoma cell line; conditions: HepG2 cells, dose-dependent and time-dependent
[2] = system: SMMC-7721 human hepatocellular carcinoma cell line; conditions: SMMC-7721 cells, dose-dependent and time-dependent
[3] = system: CYP3A4 enzyme; conditions: both in vitro and in vivo

Q: What does the source list for C[C@]12CC[C@H](O)C[C@H]1CC[C@@H]1[C@@H]2CC[C@]2(C)[C@@H](c3ccc(=O)oc3)CC[C@]12O [bufalin]?
A: Inhibition of proliferation [1]: inhibited the proliferation; Inhibition of proliferation [2]: inhibited the proliferation; Inhibition of CYP3A4 enzyme [3]: modest but significant inhibition
